Test: xn = mol fraction of the nth substance listed

Fc1c(F)c(F)c(F)c(F)c1F + Cc1cccc(C)n1
viscosity [mPa·s], 101.33 kPa
Conditions	x2 = 0.091	x2 = 0.165	x2 = 0.229	x2 = 0.283	x2 = 0.497	x2 = 0.5	x2 = 0.712	x2 = 0.767	x2 = 0.832	x2 = 0.908
293.15 K	–	0.9415	0.9457	–	–	0.9333	0.8943	0.8824	0.8673	0.8549
298.15 K	–	0.869	0.8709	0.8665	0.8598	0.8584	0.8268	0.8175	0.8052	0.7928
308.15 K	–	0.7494	0.7485	0.7439	0.7372	0.736	0.7137	0.7072	0.6997	0.6916
318.15 K	0.6629	0.6586	0.6562	–	0.6401	0.6401	0.6252	0.6209	0.616	0.611

C1=Cc2cccc3cccc1c23 + Cc1ccccc1
viscosity [mPa·s], 101 kPa
Conditions	303.15 K	308.15 K	313.15 K	318.15 K
x1 = 0.1292	0.6888	0.6467	0.608	0.573
x1 = 0.195	0.794	0.74	0.6961	0.6516

C=C1CCC2CC1C2(C)C (stereo not given) + Cc1ccccc1
viscosity [mPa·s], 101 kPa
Conditions	x2 = 0.2689	x2 = 0.3867	x2 = 0.4951	x2 = 0.5953	x2 = 0.6881	x2 = 0.7744	x2 = 0.8547	x2 = 0.9298
303.15 K	1.188	0.995	0.86	0.754	0.684	0.633	0.595	0.564
308.5 K	1.112	0.93	0.803	0.703	0.642	0.595	0.565	0.536
313.15 K	1.027	0.863	0.745	0.654	0.598	0.56	0.534	0.505

Cc1cccc(N)c1 + Cc1ccccc1
303.15 K, 101.33 kPa
Conditions	viscosity [mPa·s]
x1 = 0.168	0.61
x1 = 0.422	0.8
x1 = 0.619	1.05
x1 = 0.801	1.53

CCCC[N+](CCCC)(CCCC)CCCC.[Br-] + ClC(Cl)(Cl)Cl
303.15 K, 101 kPa
Conditions	viscosity [mPa·s]
x1 = 0.0245	2.46
x1 = 0.026	2.59
x1 = 0.0348	3.22
x1 = 0.0608	7.11
x1 = 0.0946	14.33
x1 = 0.1162	24.57
x1 = 0.1446	36.49
x1 = 0.1666	56.17
x1 = 0.1764	63.7
x1 = 0.2004	101.7
x1 = 0.2171	141.8
x1 = 0.2631	307.1
x1 = 0.3449	1248

C1=Cc2cccc3cccc1c23 + ClC(Cl)Cl
viscosity [mPa·s], 101 kPa
Conditions	298.15 K	303.15 K	308.15 K	313.15 K
x1 = 0.1595	0.892	0.8295	0.7764	0.7199
x1 = 0.2105	0.9695	0.907	0.8473	0.7968

CCCC[N+](CCCC)(CCCC)CCCC.[Br-] + NCCO
101 kPa, x1 = 0.143
Conditions	viscosity [mPa·s]
298.15 K	53.49
303.15 K	40.7
308.15 K	31.66
313.15 K	25.12
318.15 K	20.28
323.15 K	16.63

NCCN1CCNCC1 + NCCO.O=CO
viscosity [mPa·s], 100 kPa
Conditions	x2 = 0.2317	x2 = 0.3408	x2 = 0.4457	x2 = 0.5468	x2 = 0.6441	x2 = 0.7379	x2 = 0.8283
298.15 K	130.1	250.1	379.1	466.9	462.4	357.8	264.9
303.15 K	80.27	188.7	266.6	322.5	323.3	259	196.6
308.15 K	–	136.2	191.3	230.5	234.9	192	149.1
313.15 K	–	102.4	141.7	170	173.6	146.6	115.8
318.15 K	–	78.62	106.8	127.9	131.8	113.7	91.74
323.15 K	–	61.55	83.63	98.95	102.1	89.85	74.36

Source: the CheMixHub viscosity set
